The results in this text go back to ChEMBL document CHEMBL5465560, “Selectivity Literature for EUbOPEN Chemogenomic Library” (2024).

The structures appear in SMILES notation.

Test [1] deals with Serine/threonine-protein kinase 16 (Homo sapiens, UniProt O75716). As to conditions: at 10 µM.
The test system of test [2] is T1, Receptor-type tyrosine-protein kinase FLT3 (Homo sapiens), P36888 [N841I].
T1 sequence (whole entry): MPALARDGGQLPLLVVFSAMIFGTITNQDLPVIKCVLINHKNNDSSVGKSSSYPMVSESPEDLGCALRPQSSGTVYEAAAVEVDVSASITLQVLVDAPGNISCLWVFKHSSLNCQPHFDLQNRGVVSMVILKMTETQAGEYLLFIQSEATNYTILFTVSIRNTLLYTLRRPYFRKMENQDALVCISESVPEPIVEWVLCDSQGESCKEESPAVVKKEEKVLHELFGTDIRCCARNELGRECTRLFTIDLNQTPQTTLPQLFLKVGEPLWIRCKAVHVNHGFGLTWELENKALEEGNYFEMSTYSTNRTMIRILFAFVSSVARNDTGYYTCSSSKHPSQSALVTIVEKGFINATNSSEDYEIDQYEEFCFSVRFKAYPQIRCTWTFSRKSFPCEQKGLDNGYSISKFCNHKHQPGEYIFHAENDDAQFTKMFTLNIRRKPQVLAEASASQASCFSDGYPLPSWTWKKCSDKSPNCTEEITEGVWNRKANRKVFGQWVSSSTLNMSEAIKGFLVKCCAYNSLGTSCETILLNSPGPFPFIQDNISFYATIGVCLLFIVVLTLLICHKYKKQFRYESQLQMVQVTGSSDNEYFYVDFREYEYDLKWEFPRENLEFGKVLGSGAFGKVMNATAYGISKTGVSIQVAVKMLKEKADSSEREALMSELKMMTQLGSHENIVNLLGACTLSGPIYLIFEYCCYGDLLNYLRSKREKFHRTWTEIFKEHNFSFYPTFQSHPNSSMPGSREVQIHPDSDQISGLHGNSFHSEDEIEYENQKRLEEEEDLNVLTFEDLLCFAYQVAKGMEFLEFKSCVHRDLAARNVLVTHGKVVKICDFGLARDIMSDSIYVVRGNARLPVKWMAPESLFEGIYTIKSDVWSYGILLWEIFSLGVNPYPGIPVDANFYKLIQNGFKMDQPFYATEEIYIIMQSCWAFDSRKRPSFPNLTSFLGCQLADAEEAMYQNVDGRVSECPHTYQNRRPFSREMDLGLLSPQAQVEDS
As to conditions: at 10 µM.

Test [3] addresses T2, Serine/threonine-protein kinase D1 (Homo sapiens) (UniProt Q15139).
T2 sequence (whole entry): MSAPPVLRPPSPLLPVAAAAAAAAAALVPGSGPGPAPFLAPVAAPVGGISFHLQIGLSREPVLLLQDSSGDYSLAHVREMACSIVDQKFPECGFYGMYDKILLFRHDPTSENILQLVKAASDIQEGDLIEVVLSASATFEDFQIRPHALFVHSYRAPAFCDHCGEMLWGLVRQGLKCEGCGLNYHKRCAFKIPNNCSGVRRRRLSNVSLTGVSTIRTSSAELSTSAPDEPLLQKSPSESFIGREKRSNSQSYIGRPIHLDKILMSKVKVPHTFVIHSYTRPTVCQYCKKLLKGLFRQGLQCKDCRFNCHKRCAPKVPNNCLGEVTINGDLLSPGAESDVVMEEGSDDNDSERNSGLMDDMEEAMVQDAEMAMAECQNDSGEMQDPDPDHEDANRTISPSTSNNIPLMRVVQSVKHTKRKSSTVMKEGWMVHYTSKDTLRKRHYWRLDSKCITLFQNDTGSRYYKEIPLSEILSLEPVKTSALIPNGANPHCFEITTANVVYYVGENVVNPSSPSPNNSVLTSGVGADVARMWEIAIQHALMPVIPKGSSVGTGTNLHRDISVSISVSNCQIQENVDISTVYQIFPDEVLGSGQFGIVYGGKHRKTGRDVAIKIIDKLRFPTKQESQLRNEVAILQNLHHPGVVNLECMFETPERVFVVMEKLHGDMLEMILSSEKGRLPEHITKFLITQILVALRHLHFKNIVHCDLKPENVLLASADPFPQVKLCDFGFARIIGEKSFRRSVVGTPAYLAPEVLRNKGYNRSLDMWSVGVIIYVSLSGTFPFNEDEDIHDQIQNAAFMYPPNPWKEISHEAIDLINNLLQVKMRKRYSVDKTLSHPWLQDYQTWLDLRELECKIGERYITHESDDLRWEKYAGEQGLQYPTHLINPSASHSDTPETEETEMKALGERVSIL
The test can be described thus: Selectivity interaction (KinomeScan (DiscoverX)) EUB0001079a PRKD1. As to conditions: at 1 µM.

The target of test [4] is Ribosomal protein S6 kinase beta-1 (Homo sapiens, UniProt P23443). Briefly: Selectivity interaction (Millipore kinase profiler) EUB0000124b RPS6KB1. The settings on record: at 10 µM.
Ribosomal protein S6 kinase beta-1, sequence (P23443 whole entry, looked up): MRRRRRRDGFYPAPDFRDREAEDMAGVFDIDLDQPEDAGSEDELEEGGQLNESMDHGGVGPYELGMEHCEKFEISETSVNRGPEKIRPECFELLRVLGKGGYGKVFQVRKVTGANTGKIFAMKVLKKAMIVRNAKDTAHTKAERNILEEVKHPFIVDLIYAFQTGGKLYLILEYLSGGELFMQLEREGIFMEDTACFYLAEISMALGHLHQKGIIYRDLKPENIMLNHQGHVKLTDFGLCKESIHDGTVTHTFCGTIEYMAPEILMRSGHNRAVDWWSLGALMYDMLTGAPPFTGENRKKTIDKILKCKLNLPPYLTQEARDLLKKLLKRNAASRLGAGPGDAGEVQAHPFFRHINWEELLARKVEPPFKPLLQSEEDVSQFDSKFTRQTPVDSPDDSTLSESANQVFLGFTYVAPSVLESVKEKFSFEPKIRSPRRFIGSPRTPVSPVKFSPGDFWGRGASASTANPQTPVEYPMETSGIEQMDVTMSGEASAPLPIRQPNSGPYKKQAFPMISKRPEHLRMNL
Test [5] deals with NT-3 growth factor receptor (Homo sapiens, UniProt Q16288). Briefly: Selectivity interaction (KinomeScan (DiscoverX)) EUB0000092b NTRK3. The settings on record: at 10 µM.
NT-3 growth factor receptor, sequence (Q16288 32-839 limits assumed): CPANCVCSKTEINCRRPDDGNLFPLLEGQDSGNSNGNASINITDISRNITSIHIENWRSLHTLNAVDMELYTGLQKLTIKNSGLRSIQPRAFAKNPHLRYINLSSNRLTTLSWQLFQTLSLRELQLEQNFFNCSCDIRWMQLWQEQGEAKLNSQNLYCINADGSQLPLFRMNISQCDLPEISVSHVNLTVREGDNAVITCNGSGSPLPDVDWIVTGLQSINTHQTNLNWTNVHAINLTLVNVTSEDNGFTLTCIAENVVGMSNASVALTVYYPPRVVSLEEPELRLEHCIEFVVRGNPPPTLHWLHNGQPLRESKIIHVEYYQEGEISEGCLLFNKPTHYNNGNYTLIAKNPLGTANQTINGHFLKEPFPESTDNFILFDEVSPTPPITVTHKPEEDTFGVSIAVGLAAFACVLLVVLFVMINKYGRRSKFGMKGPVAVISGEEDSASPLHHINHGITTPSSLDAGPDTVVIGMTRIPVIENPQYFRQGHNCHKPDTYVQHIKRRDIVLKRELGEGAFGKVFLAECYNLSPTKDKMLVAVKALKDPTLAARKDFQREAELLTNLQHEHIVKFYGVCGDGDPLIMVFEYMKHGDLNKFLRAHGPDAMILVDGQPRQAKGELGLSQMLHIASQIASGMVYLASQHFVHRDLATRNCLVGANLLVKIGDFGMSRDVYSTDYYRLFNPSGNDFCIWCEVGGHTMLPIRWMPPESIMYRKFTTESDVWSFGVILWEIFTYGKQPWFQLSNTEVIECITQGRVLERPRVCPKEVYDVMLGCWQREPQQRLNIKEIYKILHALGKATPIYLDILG
For test [6], the system named is Tyrosine-protein kinase ABL1 (Homo sapiens), P00519 [Q252H]. The test can be described thus: Selectivity interaction (KinomeScan (DiscoverX)) EUB0000666a ABL1. The settings on record: at 10 µM.
Test [7] addresses Cyclin-dependent kinase 16 (Homo sapiens) (UniProt Q00536). Briefly: Selectivity interaction (ActivX KiNativ screen (kinase selectivity in THP-1 cell lysates)) EUB0000639a CDK16. The class given is subcellular. As to conditions: lysate, at 5 µM.
Test [8] deals with Non-receptor tyrosine-protein kinase TYK2 (Homo sapiens, UniProt P29597). The test can be described thus: Selectivity interaction (ActivX KiNativ screen (kinase selectivity in THP-1 cell lysates)) EUB0000639a TYK2. It is filed as subcellular. The settings on record: lysate.
Non-receptor tyrosine-protein kinase TYK2, sequence (P29597 whole entry, canonical isoform): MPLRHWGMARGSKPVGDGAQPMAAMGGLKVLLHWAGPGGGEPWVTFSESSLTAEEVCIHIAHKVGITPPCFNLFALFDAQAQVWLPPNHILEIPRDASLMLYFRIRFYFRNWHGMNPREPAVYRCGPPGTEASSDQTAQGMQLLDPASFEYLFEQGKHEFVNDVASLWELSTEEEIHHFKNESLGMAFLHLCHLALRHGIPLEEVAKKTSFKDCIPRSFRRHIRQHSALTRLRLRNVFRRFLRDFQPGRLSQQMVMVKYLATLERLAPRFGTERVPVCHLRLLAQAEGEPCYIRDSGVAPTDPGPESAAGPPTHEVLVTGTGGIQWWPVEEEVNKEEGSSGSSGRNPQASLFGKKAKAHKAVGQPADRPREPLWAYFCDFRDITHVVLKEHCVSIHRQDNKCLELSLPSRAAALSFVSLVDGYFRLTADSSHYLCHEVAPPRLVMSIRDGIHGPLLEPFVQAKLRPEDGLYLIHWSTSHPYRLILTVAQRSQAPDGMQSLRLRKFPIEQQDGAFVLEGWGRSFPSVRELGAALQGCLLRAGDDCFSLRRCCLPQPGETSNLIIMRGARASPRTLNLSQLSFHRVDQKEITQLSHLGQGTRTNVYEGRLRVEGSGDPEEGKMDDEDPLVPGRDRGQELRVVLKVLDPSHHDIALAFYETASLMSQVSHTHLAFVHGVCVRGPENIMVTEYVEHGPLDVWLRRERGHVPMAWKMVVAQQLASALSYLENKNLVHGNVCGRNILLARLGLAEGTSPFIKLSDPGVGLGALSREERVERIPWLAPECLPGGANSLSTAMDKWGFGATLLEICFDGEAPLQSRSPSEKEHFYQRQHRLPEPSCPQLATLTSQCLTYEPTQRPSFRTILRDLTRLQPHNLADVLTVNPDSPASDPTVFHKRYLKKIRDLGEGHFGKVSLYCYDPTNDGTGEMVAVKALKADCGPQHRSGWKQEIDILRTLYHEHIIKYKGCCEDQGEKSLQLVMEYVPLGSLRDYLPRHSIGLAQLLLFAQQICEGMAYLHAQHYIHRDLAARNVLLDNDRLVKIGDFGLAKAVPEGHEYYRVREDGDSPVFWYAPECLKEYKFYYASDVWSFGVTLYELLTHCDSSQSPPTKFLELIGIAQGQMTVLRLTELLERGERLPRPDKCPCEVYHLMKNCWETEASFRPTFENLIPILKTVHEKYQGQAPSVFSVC
Test [9] deals with Casein kinase I isoform alpha (Homo sapiens, UniProt P48729). The test can be described thus: Selectivity interaction (ActivX KiNativ screen (kinase selectivity in THP-1 cell lysates)) EUB0000639a CSNK1A1. The class given is subcellular. As to conditions: lysate.
Casein kinase I isoform alpha, sequence (P48729 2-337 limits assumed): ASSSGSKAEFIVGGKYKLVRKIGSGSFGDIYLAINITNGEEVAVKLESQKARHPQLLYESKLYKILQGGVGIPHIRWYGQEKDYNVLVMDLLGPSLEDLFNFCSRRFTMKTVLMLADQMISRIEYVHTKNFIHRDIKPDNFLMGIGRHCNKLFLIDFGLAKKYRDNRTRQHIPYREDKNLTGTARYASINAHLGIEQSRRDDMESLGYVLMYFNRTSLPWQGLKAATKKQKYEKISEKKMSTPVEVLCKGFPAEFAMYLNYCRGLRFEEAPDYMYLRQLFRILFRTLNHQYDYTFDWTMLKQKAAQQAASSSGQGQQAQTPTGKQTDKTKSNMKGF
Test [10] relates to Tyrosine-protein kinase ABL1 (Homo sapiens), P00519 [F317L]. The test can be described thus: Selectivity interaction (KinomeScan (DiscoverX)) EUB0000618a ABL1. As to conditions: at 10 µM.

Cyclin-dependent kinase 16 (Homo sapiens), sequence (Q00536 whole entry): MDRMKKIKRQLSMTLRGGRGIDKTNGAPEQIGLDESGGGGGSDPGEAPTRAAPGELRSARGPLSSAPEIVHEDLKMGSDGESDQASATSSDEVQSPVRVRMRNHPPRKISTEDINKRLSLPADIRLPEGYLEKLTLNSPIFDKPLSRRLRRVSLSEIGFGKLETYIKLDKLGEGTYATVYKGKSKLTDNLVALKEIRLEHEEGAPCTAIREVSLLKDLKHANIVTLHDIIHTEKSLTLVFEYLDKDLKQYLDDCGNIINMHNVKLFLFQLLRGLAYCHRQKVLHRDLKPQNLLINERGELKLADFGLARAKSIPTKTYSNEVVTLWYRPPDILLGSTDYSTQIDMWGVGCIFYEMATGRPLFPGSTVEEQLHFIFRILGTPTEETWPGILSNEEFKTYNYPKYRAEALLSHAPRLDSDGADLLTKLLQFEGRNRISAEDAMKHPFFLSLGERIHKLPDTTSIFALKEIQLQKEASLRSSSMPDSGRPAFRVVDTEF
Serine/threonine-protein kinase 16, sequence (O75716 whole entry): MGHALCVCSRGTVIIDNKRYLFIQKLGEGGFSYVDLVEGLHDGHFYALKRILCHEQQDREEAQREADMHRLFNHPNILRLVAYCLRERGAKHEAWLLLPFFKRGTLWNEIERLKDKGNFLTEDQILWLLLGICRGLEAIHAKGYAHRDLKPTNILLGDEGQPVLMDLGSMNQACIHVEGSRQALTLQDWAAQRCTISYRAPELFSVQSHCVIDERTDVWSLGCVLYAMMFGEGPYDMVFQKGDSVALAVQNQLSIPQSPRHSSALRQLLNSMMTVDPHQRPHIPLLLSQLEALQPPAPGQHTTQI

In the case of `Cc1cc([C@@H](C)Nc2ccccc2C(=O)O)c2nc(N3CCOCC3)cc(=O)n2c1` [AZD-6482], in [1], the % of control was determined as 77%.

For the compound `CCN(CC)CCCCNc1ncc2cc(-c3cc(OC)cc(OC)c3)c(NC(=O)NC(C)(C)C)nc2n1`, the % of control in [2] came to 100%.

For `Nc1cnc(N2CCc3cc(S(=O)(=O)Nc4c(F)cc(Cl)cc4F)cc(N4CCCC4=O)c32)nc1` [TP-020n], the % of control in [3] is 83%.

As to `CC(=O)Nc1cccc(-n2c(=O)n(C3CC3)c(=O)c3c(Nc4ccc(I)cc4F)n(C)c(=O)c(C)c32)c1`, in test [4], the % of control was 104%.

For the compound `CCC(=O)N1CCN(c2ccc(-n3c(=O)ccc4cnc5ccc(-c6cnc7ccccc7c6)cc5c43)cc2C(F)(F)F)CC1`, the % of control in test [5] was 100%.

In turn, `O=C(NOC[C@H](O)CO)c1ccc(F)c(F)c1Nc1ccc(I)cc1F` yielded a % of control in test [6] of 100%.

As for `CC[C@@H]1[C@H](F)C(=O)N[C@@H]1COc1nccc2cc(C(N)=O)c(OC)cc12` [ZIMLOVISERTIB], the % of inhibition in test [7] was determined as 41.7%; in test [8] (at 0.01 µM), 1.5%; in [8] (at 0.04 µM) it was 4%; in [8] (at 0.2 µM) it was 2.3%; in test [8] (at 1 µM) it was 12.6%; in [8] (at 5 µM), 19.4%. Moreover, the % of inhibition is -11.5% in test [9] (at 0.01 µM); -1% in test [9] (at 0.04 µM); -9.3% in [9] (at 0.2 µM); -0.4% in test [9] (at 1 µM); 16.4% in [9] (at 5 µM).

Compound `O[C@H]1CC[C@H](Nc2ncc3nc(Nc4c(F)cc(F)cc4F)n([C@H]4CCOC4)c3n2)CC1` registered a % of control in test [10] of 30%.
